Assay results taken from patent US5128465A, “Process for the preparation of cephem derivatives and intermediates therefor” (Eisai Co., Ltd., priority 1988, dated 1992).
Values after ≈ are worked out from the molar mass of the structure shown.

Tests used:
Test in all cases: Antibacterial activities, MIC
Format in all cases: cell-based
[1] = system: Staphylococcus aureus 209-P
[2] = system: Pseudomonas aeruginosa EP-01; conditions: EP01
[3] = system: Klebsiella pneumoniae EK-6; conditions: EK6
[4] = system: Serratia marcescens ES-75; conditions: ES75
[5] = system: Morganella morgani EP-14; conditions: EP14
[6] = system: Escherichia coli NIHJ

MIC [1] [µg/mL]	MIC [2] [µg/mL]	MIC [3] [µg/mL]	MIC [4] [µg/mL]	MIC [5] [µg/mL]	MIC [6] [µg/mL]	Structure (SMILES)
0.2 (≈ 0.349 µM)	0.8 (≈ 1.4 µM)	≤ 0.025	≤ 0.025	≤ 0.025	≤ 0.025	C[N+](C)(C/C=C/C1=C(C(=O)[O-])N2C(=O)[C@@H](NC(=O)/C(=N\OCF)c3nsc(N)n3)[C@H]2SC1)[C@H](CO)C(N)=O [Example 10, 7β-[2-(5-Amino-1,2,4-Thiadiazol-3-yl)-(Z)-2-fluoromethoxyiminoacetamido]-3-[(E)-3-[((R)-1-Carbamoyl-2-Hydroxyethyl)Dimethylammonio]-1-propenyl]-3-Cephem-4-Carboxylate]
0.2 (≈ 0.359 µM)	0.8 (≈ 1.44 µM)	≤ 0.025	0.1 (≈ 0.18 µM)	≤ 0.025	≤ 0.025	CC[N+](C)(C/C=C/C1=C(C(=O)[O-])N2C(=O)[C@@H](NC(=O)/C(=N\OCF)c3nsc(N)n3)[C@H]2SC1)CC(N)=O (stereo partly drawn) [Example 14, 7β-[2-(5-Amino-1,2,4-Thiadiazol-3-yl)-(Z)-2-Fluoromethoxyiminoacetamido]-3-[(E)-3-(Carbamoylmethylethylmethylammonio)-1-Propenyl]-3-Cephem-4-Carboxylate]
0.2 (≈ 0.359 µM)	1.56 (≈ 2.8 µM)	≤ 0.025	0.1 (≈ 0.18 µM)	≤ 0.025	≤ 0.025	C[C@H](C(N)=O)[N+](C)(C)C/C=C/C1=C(C(=O)[O-])N2C(=O)[C@@H](NC(=O)/C(=N\OCF)c3nsc(N)n3)[C@H]2SC1 [Example 18, 7β-[2-(5-Amino-1,2,4-Thiadiazol-3-yl)-(Z)-2-Fluoromethyoxyiminoacetamido]-3-[(E)-3-[((R)-1Carbamoylethyl)dimethylammonio]-1-propenyl]-3-Cephem-4-Carboxylate]
